Here are results for 14 molecules from patent US6365572B1, “Low molecular weight peptide derivatives as inhibitors of the laminin/nidogen interaction” (Aventis Pharma Deutschland GmbH, priority 1999, dated 2002).

Read-outs that look alike come from different tables or passages of the source. Non-standard residues stand in square brackets, D forms with d. Residues, ends and D or L forms follow the SMILES beside them. *: point of attachment. 1Nal = N[C@@H](Cc1cccc2ccccc12)C(=O)O; 2Nal = N[C@@H](Cc1ccc2ccccc2c1)C(=O)O; Bta = N[C@@H](Cc1csc2ccccc12)C(=O)O; NH(3-hydroxypropyl) = OCCCN*

The target of this test is T1, laminin/nidogen interaction (laminin P1, recombinantly produced human nidogen) (Homo sapiens, UniProt P14543).
T1 construct: made in house; host or cells: HEK-293
T1 sequence (P14543 29-1247): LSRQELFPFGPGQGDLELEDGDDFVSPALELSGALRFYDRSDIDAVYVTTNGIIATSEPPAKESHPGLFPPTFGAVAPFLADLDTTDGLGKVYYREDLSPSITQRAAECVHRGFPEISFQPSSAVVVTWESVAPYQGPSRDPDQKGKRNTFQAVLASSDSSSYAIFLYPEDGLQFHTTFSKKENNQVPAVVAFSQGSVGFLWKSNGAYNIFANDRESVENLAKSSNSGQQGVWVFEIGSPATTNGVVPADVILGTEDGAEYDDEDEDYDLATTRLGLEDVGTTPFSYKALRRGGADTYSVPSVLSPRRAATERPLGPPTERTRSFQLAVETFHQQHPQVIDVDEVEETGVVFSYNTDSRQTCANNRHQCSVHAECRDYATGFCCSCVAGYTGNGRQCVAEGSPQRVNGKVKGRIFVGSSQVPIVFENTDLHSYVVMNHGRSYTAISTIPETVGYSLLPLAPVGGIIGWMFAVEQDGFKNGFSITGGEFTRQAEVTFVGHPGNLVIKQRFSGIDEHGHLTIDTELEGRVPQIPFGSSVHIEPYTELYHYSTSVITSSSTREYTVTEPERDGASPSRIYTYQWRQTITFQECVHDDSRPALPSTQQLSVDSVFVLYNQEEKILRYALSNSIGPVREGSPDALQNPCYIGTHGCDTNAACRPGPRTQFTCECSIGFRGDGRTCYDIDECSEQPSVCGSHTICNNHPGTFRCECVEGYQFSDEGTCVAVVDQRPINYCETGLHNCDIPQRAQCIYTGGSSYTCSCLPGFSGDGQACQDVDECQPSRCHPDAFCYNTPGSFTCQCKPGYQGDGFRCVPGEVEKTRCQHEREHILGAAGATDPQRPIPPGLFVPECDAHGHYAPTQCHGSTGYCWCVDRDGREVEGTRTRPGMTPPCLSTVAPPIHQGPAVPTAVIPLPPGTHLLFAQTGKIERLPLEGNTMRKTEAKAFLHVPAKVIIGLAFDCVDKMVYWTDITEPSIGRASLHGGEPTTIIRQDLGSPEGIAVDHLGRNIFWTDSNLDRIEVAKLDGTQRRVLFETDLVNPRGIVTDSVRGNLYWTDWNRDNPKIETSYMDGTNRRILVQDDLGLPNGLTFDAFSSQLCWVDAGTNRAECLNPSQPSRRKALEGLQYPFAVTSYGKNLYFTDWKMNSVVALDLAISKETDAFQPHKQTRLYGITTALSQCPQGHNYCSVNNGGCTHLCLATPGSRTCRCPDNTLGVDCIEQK
The test is described as follows: HTS screening assay (time-resolved fluorescence), inhibition of laminin/nidogen binding. Particulars: read-out: IC50. How it is done:
5) The compound stocks were preincubated with nidogen (10 μl compound stock to 90 μl nidogen solution) and the assay was performed as described in the attached protocol, yielding a final screening concentration of 2.7 μM per compound. The isolation of laminin P1 from human placenta, human nidogen from transfected HEK-293 cells and mouse laminin γ1III 3-5 from HEK-293 cells is described in WO 98/31709. 3.1.1. HTS screening assay (highly sensitive assay variant): Time-Resolved Fluorescence Assay Coating of test tubes Microtiter plates (for example FluoroNunc®) were coated with 75 μl of a 0.1 μg/ml solution of laminin P1 (in 0.159 g of Na2CO3, 0.293 g of NaHCO3, 0.02 g of NaN3/liter, pH 9.2) at room temperature for 1 hour. The solution was then tipped off, and free binding sites were blocked by incubation with 0.5% BSA (in 7.9 g of NaCl, 1.2 g of Na2HPO4, 0.31 g of KCl, 0.23 g of NaH2PO4, 0.04% Tween 20/liter, pH 7.2) at room temperature for 0.5 hour. Completion of the blocking reaction was followed by decantation of the solution and washing once with 250 μl of washing buffer (PBS/0.04% Tween). Sequential inhibition In parallel with the coating, a preincubation of 85-100 μl of a 0.25 nM nidogen solution (recombinantly produced human nidogen) with inhibitor or standard was carried out in a separate reaction vessel (1 hour at room temperature in 7.9 g of NaCl, 1.2 g of Na2HPO4, 0.31 g of KCl, 0.23 g of NaH2PO4, 0.04% Tween 20/liter, 0.5% BSA, pH 7.2). 75 μl of the preincubation (nidogen+inhibitor or standard) were transferred into the coated wells of the microtiter plate and incubated at room temperature for 1 hour. This was followed by washing twice with PBS/0.04% Tween. Detection of the bound nidogen took place by incubation (at room temperature) for 1 hour with 75 μl of a specific antibody preparation obtained from yolks of eggs from a chicken immunized with human nidogen. The IgY fraction was used in a dilution of 1:500 in PBS/0.04% Tween. The complex of nidogen and specifically bound antibodies was, after washing twice with PBS/0.04% Tween, detected by adding anti-chicken IgY-biotin (75 μl of a 1:2500 dilution; Promega, Madison, Wis. 53711, 608-274-4330). An incubation time of 1 hour and washing twice with PBS/0.04% Tween were followed for this purpose by incubation with streptavidin-europium (Wallac; 1 hour at room temperature) and washing twice with PBS/0.04% Tween. It was finally possible, after adding 100 μl of enhancement solution (Wallac) and shaking for 5 minutes, to measure a fluorescence signal in a Victor multilabel counter using the europium protocol. The relation between the amount, of bound nidogen in the solutions with inhibitor and that of nidogen without added inhibitor was found.

[1] abbreviates: results table 1.3, synthesized compounds 1 to 43.
Setting [2] is: hit structures recovered from the pentamer library screening.

Take `CC(C)[C@H](NC(=O)[C@H](C)NC(=O)[C@H](CC(N)=O)NC(=O)C1[C@@H](c2ccc3ccccc3c2)CCN1C(=O)CCC(=O)O)C(N)=O` (stereo in doubt) [Compound 34, Succinyl-L-(3R)-(2-naphthyl)prolyl-L-asparaginyl-L-alanyl-L-valine-amide]: the IC50 (in general, the midpoint of a concentration-inhibition curve) under setting [1] came out at 27 nM.
Turning to `CC[C@H](C)[C@H](NC(=O)[C@@H](N)CC(N)=O)C(=O)N[C@@H](CC(=O)O)C(=O)N1CCC[C@H]1C(=O)N[C@@H](CC(N)=O)C(=O)N[C@@H](C)C(=O)N[C@H](C(=O)NCC(=O)NCCCO)C(C)C` [Compound 1, L-Asparaginyl-L-isoleucyl-L-aspartyl-L-prolyl-L-asparaginyl-L-alanyl-L-valyl-glycine-3-hydroxypropylamide, reference compound] (H-NIDPNAVG-{NH(3-hydroxypropyl)}), the IC50 under setting [1] stood at 3900 nM.
Still for that read-out and setting: in the case of `CC(C)[C@H](NC(=O)[C@H](C)NC(=O)[C@H](CC(N)=O)NC(=O)[C@@H]1CCCN1C(=O)[C@@H](N)CC(=O)O)C(=O)NCC(=O)NCCCO` [Compound 2, L-Aspartyl-L-prolyl-L-asparaginyl-L-alanyl-L-valyl-glycine-3-hydroxypropylamide, reference compound] (H-DPNAVG-{NH(3-hydroxypropyl)}) it was 7700 nM.
For `CC(C)[C@H](NC(=O)[C@H](CC(=O)O)NC(=O)[C@H](CC(N)=O)NC(=O)[C@H](Cc1ccc2ccccc2c1)NC(=O)[C@@H](N)CC(=O)O)C(=O)NCC(=O)NCCCO` [Compound 3, L-Aspartyl-L-3-(2-naphthyl)alanyl-L-asparaginyl-L-aspartyl-L-valyl-glycine-3-hydroxypropylamide] (H-D[2Nal]NDVG-{NH(3-hydroxypropyl)}), the IC50 by setting is: under setting [2], 430 nM; under setting [1], 510 nM.
For `CC(C)[C@H](NC(=O)[C@H](CO)NC(=O)[C@H](CC(N)=O)NC(=O)[C@H](Cc1ccc2ccccc2c1)NC(=O)[C@@H](N)CC(=O)O)C(=O)NCC(=O)NCCCO` [Compound 4, L-Aspartyl-L-3-(2-naphthyl)alanyl-L-asparaginyl-L-seryl-L-valyl-glycine-3-hydroxypropylamide] (H-D[2Nal]NSVG-{NH(3-hydroxypropyl)}) the same measures were 490 nM and 380 nM.
On the same counts, the results for `CC(C)[C@H](NC(=O)[C@H](C)NC(=O)[C@H](CC(N)=O)NC(=O)[C@H](Cc1ccc2ccccc2c1)NC(=O)[C@@H](N)CC(=O)O)C(=O)NCC(=O)NCCCO` [Compound 5, L-Aspartyl-L-3-(2-naphthyl)alanyl-L-asparaginyl-L-alanyl-L-valyl-glycine-3-hydroxypropylamide] (H-D[2Nal]NAVG-{NH(3-hydroxypropyl)}) are 370 nM and 750 nM.
On the same counts, the results for `CC[C@H](C)[C@H](NC(=O)[C@H](CC(=O)O)NC(=O)[C@H](CC(N)=O)NC(=O)[C@H](Cc1ccc2ccccc2c1)NC(=O)[C@@H](N)CC(=O)O)C(=O)NCC(=O)NCCCO` [Compound 6] (H-D[2Nal]NDIG-{NH(3-hydroxypropyl)}) are 640 nM and 1380 nM.
With `CC[C@H](C)[C@H](NC(=O)[C@H](CO)NC(=O)[C@H](CC(N)=O)NC(=O)[C@H](Cc1ccc2ccccc2c1)NC(=O)[C@@H](N)CC(=O)O)C(=O)NCC(=O)NCCCO` [Compound 7, L-Aspartyl-L-3-(2-naphthyl)alanyl-L-asparaginyl-L-seryl-L-isoleucyl-glycine-3-hydroxypropylamide] (H-D[2Nal]NSIG-{NH(3-hydroxypropyl)}), the IC50 by setting is: under setting [2], 810 nM; under setting [1], 600 nM.
On the same counts, the results for `CC[C@H](C)[C@H](NC(=O)[C@H](C)NC(=O)[C@H](CC(N)=O)NC(=O)[C@H](Cc1ccc2ccccc2c1)NC(=O)[C@@H](N)CC(=O)O)C(=O)NCC(=O)NCCCO` [Compound 8, L-Aspartyl-L-3-(2-naphthyl)alanyl-L-asparaginyl-L-alanyl-L-isoleucyl-glycine-3-hydroxypropylamide] (H-D[2Nal]NAIG-{NH(3-hydroxypropyl)}) are 470 nM and 700 nM.
Regarding `CC(C)[C@H](NC(=O)[C@H](C)NC(=O)[C@H](CC(N)=O)NC(=O)[C@H](Cc1cccc2ccccc12)NC(=O)[C@@H](N)CC(=O)O)C(=O)NCC(=O)NCCCO` [Compound 9, L-Aspartyl-L-3-(1-naphthyl)alanyl-L-asparaginyl-L-alanyl-L-valyl-glycine-3-hydroxypropylamide] (H-D[1Nal]NAVG-{NH(3-hydroxypropyl)}), the IC50 under setting [1] stood at 8250 nM.
The same measure, in the same setting: then `CC(C)[C@H](NC(=O)[C@H](C)NC(=O)[C@H](CC(N)=O)NC(=O)[C@H](Cc1c[nH]c2ccccc12)NC(=O)[C@@H](N)CC(=O)O)C(=O)NCC(=O)NCCCO` [Compound 10, L-Aspartyl-L-tryptophanyl-L-asparaginyl-L-alanyl-L-valyl-glycine-3-hydroxypropylamide] (H-DWNAVG-{NH(3-hydroxypropyl)}), with 8570 nM.
On the same count and under the same terms, in the case of `CC(C)[C@H](NC(=O)[C@H](C)NC(=O)[C@H](CC(N)=O)NC(=O)[C@H](Cc1ccccc1)NC(=O)[C@@H](N)CC(=O)O)C(=O)NCC(=O)NCCCO` [Compound 11, L-Aspartyl-L-phenylalanyl-L-asparaginyl-L-alanyl-L-valyl-glycine-3-hydroxypropylamide] (H-DFNAVG-{NH(3-hydroxypropyl)}) it was 3380 nM; in that of `CC(C)[C@H](NC(=O)[C@H](C)NC(=O)[C@H](CC(N)=O)NC(=O)[C@H](Cc1ccc(O)cc1)NC(=O)[C@@H](N)CC(=O)O)C(=O)NCC(=O)NCCCO` [Compound 12, L-Aspartyl-L-tyrosyl-L-asparaginyl-L-alanyl-L-valyl-glycine-3-hydroxypropylamide] (H-DYNAVG-{NH(3-hydroxypropyl)}), 3790 nM.
Same read-out and setting: then `CC(C)[C@H](NC(=O)[C@H](C)NC(=O)[C@H](CC(N)=O)NC(=O)[C@H](Cc1csc2ccccc12)NC(=O)[C@@H](N)CC(=O)O)C(=O)NCC(=O)NCCCO` [Compound 13, L-Aspartyl-L-3-(3-benzothienyl)alanyl-L-asparaginyl-L-alanyl-L-valyl-glycine-3-hydroxypropylamide] (H-D[Bta]NAVG-{NH(3-hydroxypropyl)}), with 7030 nM.
